In paper PMC6316731 (Brain Sciences, 2018):

System: GABA induced current in MSNs (GABAA receptors with δ subunits / GABAC receptors)
Assay type: cell-based, mouse

Oc1noc2c1CCNC2 [Gaboxadol, 4,5,6,7-tetrahydroisoxazolo (5,4-c) pyridin-3-ol]
Effect on IGABA: concentration-dependent reduction in IGABA | EC50 (read-out: EC50, percent reduction in current by Gaboxadol): 9.81 ± 3.56 µM
